Results: the supplement of paper PMC13380429

What was measured:
[1] = system: A549-ACE2 infected with SARS-CoV-2; assay: cell count relative to DMSO; higher = less toxic; conditions: 24 h
Caco-2 [2] = assay: cell viability relative to DMSO; higher = less toxic; conditions: 72 h
Calu-3 [3] = assay: as above; conditions: 72 h
HepG2 [4] = assay: as above; conditions: 72 h
U2OS [5] = assay: as above; conditions: 72 h
Vero E6 [6] = assay: as above; conditions: 72 h
[7] = system: A549-ACE2 infected with SARS-CoV-2; assay: SARS-CoV-2 infection rate relative to DMSO; higher = more infection; conditions: 24 h
A549-ACE2 [8] = assay: phospholipidosis EC50; higher = less potent phospholipidosis inducer
A549-ACE2 [9] = assay: drug-induced phospholipidosis relative to tamoxifen; higher = more phospholipidosis
[10] = system: A549-ACE2 infected with SARS-CoV-2; assay: morphology score (similarity to uninfected cells); higher = more like uninfected cells; conditions: 24 h
Caco-2 [11] = assay: relative viability EC50 (midpoint between 100% and the lowest measured viability); higher = less toxic; conditions: 72 h
Calu-3 [12] = assay: as above; conditions: 72 h
HepG2 [13] = assay: as above; conditions: 72 h
U2OS [14] = assay: as above; conditions: 72 h
Vero E6 [15] = assay: as above; conditions: 72 h
Caco-2 [16] = assay: drug sensitivity score (DSS) for viability; higher = more toxic; extreme values may be limits of the assay; conditions: 72 h
Calu-3 [17] = assay: as above; conditions: 72 h
HepG2 [18] = assay: as above; conditions: 72 h
U2OS [19] = assay: as above; conditions: 72 h
Vero E6 [20] = assay: as above; conditions: 72 h

CN(C(=O)Cc1ccc(Cl)c(Cl)c1)[C@H](CN1CCCC1)c1ccccc1
Conditions | SARS-CoV-2 infection rate [%] | cell count [%] | cell viability [%] | morphology score | phospholipidosis EC50 [µM]
A549-ACE2 [8], 24 h | – | – | – | – | 3.63
A549-ACE2 [8], 48 h | – | – | – | – | 5.18
A549-ACE2 [8], 72 h | – | – | – | – | 8.35
Caco-2 [2], 1 nM | – | – | 96.7 | – | –
Caco-2 [2], 10 nM | – | – | 103 | – | –
Caco-2 [2], 100 nM | – | – | 103 | – | –
Caco-2 [2], 1000 nM | – | – | 103 | – | –
Caco-2 [2], 10000 nM | – | – | 76 | – | –
Calu-3 [3], 1 nM | – | – | 96.1 | – | –
Calu-3 [3], 10 nM | – | – | 100 | – | –
Calu-3 [3], 100 nM | – | – | 90.9 | – | –
Calu-3 [3], 1000 nM | – | – | 97.1 | – | –
Calu-3 [3], 10000 nM | – | – | 28.9 | – | –
HepG2 [4], 1 nM | – | – | 98.1 | – | –
HepG2 [4], 10 nM | – | – | 105 | – | –
HepG2 [4], 100 nM | – | – | 106 | – | –
HepG2 [4], 1000 nM | – | – | 99.4 | – | –
HepG2 [4], 10000 nM | – | – | 85.3 | – | –
U2OS [5], 1 nM | – | – | 96.9 | – | –
U2OS [5], 10 nM | – | – | 99.7 | – | –
U2OS [5], 100 nM | – | – | 101 | – | –
U2OS [5], 1000 nM | – | – | 106 | – | –
U2OS [5], 10000 nM | – | – | 89.9 | – | –
Vero E6 [6], 1 nM | – | – | 104 | – | –
Vero E6 [6], 10 nM | – | – | 101 | – | –
Vero E6 [6], 100 nM | – | – | 107 | – | –
Vero E6 [6], 1000 nM | – | – | 102 | – | –
Vero E6 [6], 10000 nM | – | – | 88.1 | – | –
[1], 0.3 µM | – | 96 | – | – | –
[1], 3 µM | – | 118 | – | – | –
[1], 10 µM | – | 121 | – | – | –
[1], 30 µM | – | 92 | – | – | –
[7], 0.3 µM | 97 | – | – | – | –
[7], 3 µM | 21 | – | – | – | –
[7], 10 µM | 17 | – | – | – | –
[7], 30 µM | 36 | – | – | – | –
[10], 0.3 µM | – | – | – | -0.06 | –
[10], 3 µM | – | – | – | 0.89 | –
[10], 10 µM | – | – | – | 0.84 | –
[10], 30 µM | – | – | – | 0.1 | –

drug-induced phospholipidosis [%], A549-ACE2 [9]
Conditions | 0.3 µM | 0.833333 µM | 3.33333 µM | 6.66667 µM | 10 µM | 30 µM
24 h | 0.7 | 4.92 | 51.2 | 90.6 | 95.8 | 112
48 h | 4.43 | 3.22 | 36.7 | 77.7 | 97.8 | –
72 h | 3.91 | 2.85 | 31.5 | 65.6 | 90.5 | –

Conditions | drug sensitivity score | relative viability EC50 [µM]
Caco-2 [11] | – | > 10
Caco-2 [16] | 0.7 | –
Calu-3 [12] | – | 2.85
Calu-3 [17] | 4.3 | –
HepG2 [13] | – | > 10
HepG2 [18] | 0.3 | –
U2OS [14] | – | > 10
U2OS [19] | 0 | –
Vero E6 [15] | – | > 10
Vero E6 [20] | 0 | –

CCCCc1oc2ccc(NS(C)(=O)=O)cc2c1C(=O)c1ccc(OCCCN(CCCC)CCCC)cc1 [dronedarone]
Conditions | SARS-CoV-2 infection rate [%] | cell count [%] | cell viability [%] | morphology score | phospholipidosis EC50 [µM]
A549-ACE2 [8], 24 h | – | – | – | – | 0.926
A549-ACE2 [8], 48 h | – | – | – | – | 2.18
A549-ACE2 [8], 72 h | – | – | – | – | 2.34
Caco-2 [2], 1 nM | – | – | 101 | – | –
Caco-2 [2], 10 nM | – | – | 102 | – | –
Caco-2 [2], 100 nM | – | – | 94.7 | – | –
Caco-2 [2], 1000 nM | – | – | 102 | – | –
Caco-2 [2], 10000 nM | – | – | 44.6 | – | –
Calu-3 [3], 1 nM | – | – | 102 | – | –
Calu-3 [3], 10 nM | – | – | 108 | – | –
Calu-3 [3], 100 nM | – | – | 108 | – | –
Calu-3 [3], 1000 nM | – | – | 102 | – | –
Calu-3 [3], 10000 nM | – | – | 5.7 | – | –
HepG2 [4], 1 nM | – | – | 110 | – | –
HepG2 [4], 10 nM | – | – | 101 | – | –
HepG2 [4], 100 nM | – | – | 110 | – | –
HepG2 [4], 1000 nM | – | – | 99.6 | – | –
HepG2 [4], 10000 nM | – | – | 17.6 | – | –
U2OS [5], 1 nM | – | – | 100 | – | –
U2OS [5], 10 nM | – | – | 107 | – | –
U2OS [5], 100 nM | – | – | 98.1 | – | –
U2OS [5], 1000 nM | – | – | 102 | – | –
U2OS [5], 10000 nM | – | – | 23 | – | –
Vero E6 [6], 1 nM | – | – | 108 | – | –
Vero E6 [6], 10 nM | – | – | 105 | – | –
Vero E6 [6], 100 nM | – | – | 107 | – | –
Vero E6 [6], 1000 nM | – | – | 100 | – | –
Vero E6 [6], 10000 nM | – | – | 61.9 | – | –
[1], 0.1 µM | – | 103 | – | – | –
[1], 0.3 µM | – | 100 | – | – | –
[1], 1 µM | – | 111 | – | – | –
[1], 3 µM | – | 112 | – | – | –
[7], 0.1 µM | 95 | – | – | – | –
[7], 0.3 µM | 94 | – | – | – | –
[7], 1 µM | 65 | – | – | – | –
[7], 3 µM | 13 | – | – | – | –
[10], 0.1 µM | – | – | – | 0.12 | –
[10], 0.3 µM | – | – | – | 0.11 | –
[10], 1 µM | – | – | – | 0.64 | –
[10], 3 µM | – | – | – | 0.81 | –

drug-induced phospholipidosis [%], A549-ACE2 [9]
Conditions | 0.3 µM | 0.833333 µM | 3.33333 µM | 6.66667 µM | 10 µM | 30 µM
24 h | 5.9 | 23.1 | 79.1 | 94.6 | 47.9 | 35
48 h | 9.08 | 19 | 96 | 120 | – | –
72 h | 7.98 | 17 | 94.1 | 122 | – | –

Conditions | drug sensitivity score | relative viability EC50 [µM]
Caco-2 [11] | – | 3.38
Caco-2 [16] | 2.8 | –
Calu-3 [12] | – | 3.28
Calu-3 [17] | 5.1 | –
HepG2 [13] | – | 3.13
HepG2 [18] | 4.6 | –
U2OS [14] | – | 3.29
U2OS [19] | 4.1 | –
Vero E6 [20] | 1.8 | –

COc1cc(-n2cnc3cc(-c4ccc(Cl)cc4)sc3c2=O)ccc1OCCN1CCCC1
Conditions | SARS-CoV-2 infection rate [%] | cell count [%] | cell viability [%] | morphology score | phospholipidosis EC50 [µM]
A549-ACE2 [8], 24 h | – | – | – | – | 12.9
A549-ACE2 [8], 48 h | – | – | – | – | 16.7
A549-ACE2 [8], 72 h | – | – | – | – | 21
Caco-2 [2], 1 nM | – | – | 111 | – | –
Caco-2 [2], 10 nM | – | – | 88.4 | – | –
Caco-2 [2], 100 nM | – | – | 104 | – | –
Caco-2 [2], 1000 nM | – | – | 103 | – | –
Caco-2 [2], 10000 nM | – | – | 88.7 | – | –
Calu-3 [3], 1 nM | – | – | 102 | – | –
Calu-3 [3], 10 nM | – | – | 102 | – | –
Calu-3 [3], 100 nM | – | – | 100 | – | –
Calu-3 [3], 1000 nM | – | – | 101 | – | –
Calu-3 [3], 10000 nM | – | – | 89.3 | – | –
HepG2 [4], 1 nM | – | – | 108 | – | –
HepG2 [4], 10 nM | – | – | 108 | – | –
HepG2 [4], 100 nM | – | – | 108 | – | –
HepG2 [4], 1000 nM | – | – | 93.9 | – | –
HepG2 [4], 10000 nM | – | – | 73.2 | – | –
U2OS [5], 1 nM | – | – | 92.4 | – | –
U2OS [5], 10 nM | – | – | 95.9 | – | –
U2OS [5], 100 nM | – | – | 95.7 | – | –
U2OS [5], 1000 nM | – | – | 102 | – | –
U2OS [5], 10000 nM | – | – | 90.6 | – | –
Vero E6 [6], 1 nM | – | – | 110 | – | –
Vero E6 [6], 10 nM | – | – | 104 | – | –
Vero E6 [6], 100 nM | – | – | 107 | – | –
Vero E6 [6], 1000 nM | – | – | 93.4 | – | –
Vero E6 [6], 10000 nM | – | – | 93.6 | – | –
[1], 0.3 µM | – | 104 | – | – | –
[1], 3 µM | – | 116 | – | – | –
[1], 10 µM | – | 120 | – | – | –
[1], 30 µM | – | 120 | – | – | –
[7], 0.3 µM | 98 | – | – | – | –
[7], 3 µM | 73 | – | – | – | –
[7], 10 µM | 20 | – | – | – | –
[7], 30 µM | 18 | – | – | – | –
[10], 0.3 µM | – | – | – | 0.28 | –
[10], 3 µM | – | – | – | 0.6 | –
[10], 10 µM | – | – | – | 0.87 | –
[10], 30 µM | – | – | – | 0.67 | –

drug-induced phospholipidosis [%], A549-ACE2 [9]
Conditions | 0.3 µM | 0.833333 µM | 3.33333 µM | 6.66667 µM | 10 µM | 30 µM
24 h | 0.98 | -0.51 | 19.1 | 56.7 | 87.1 | 172
48 h | 1.08 | -1.67 | 14.3 | 36.9 | 63.3 | 141
72 h | 2.44 | -3.52 | 9.91 | 23.8 | 43.5 | 111

Conditions | drug sensitivity score | relative viability EC50 [µM]
Caco-2 [11] | – | > 10
Caco-2 [16] | 0 | –
Calu-3 [12] | – | > 10
Calu-3 [17] | 0 | –
HepG2 [18] | 2 | –
U2OS [14] | – | > 10
U2OS [19] | 0 | –
Vero E6 [15] | – | > 10
Vero E6 [20] | 0 | –
